In publication PMC4955518 (Bioorganic & medicinal chemistry, 2016):
Counter-ions that a name gives are not always drawn. Like-named read-outs stand apart in the source and are kept apart here.

Experiments:
human APJ = target: T1, human APJ (Homo sapiens, UniProt P35414); assay: Calcium mobilization assay for APJ; type: cell-based
T1 sequence (P35414 1-380): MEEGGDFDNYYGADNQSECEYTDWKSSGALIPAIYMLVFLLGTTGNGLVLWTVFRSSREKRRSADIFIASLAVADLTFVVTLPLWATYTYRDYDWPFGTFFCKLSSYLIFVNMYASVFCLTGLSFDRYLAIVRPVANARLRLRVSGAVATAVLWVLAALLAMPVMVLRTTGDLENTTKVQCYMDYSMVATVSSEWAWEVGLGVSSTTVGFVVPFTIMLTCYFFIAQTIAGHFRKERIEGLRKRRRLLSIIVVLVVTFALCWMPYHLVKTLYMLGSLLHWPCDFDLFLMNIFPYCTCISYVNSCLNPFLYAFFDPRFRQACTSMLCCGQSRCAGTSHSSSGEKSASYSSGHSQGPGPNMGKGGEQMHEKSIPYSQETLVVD

NTR1 = NTR1 (Rattus norvegicus, UniProt P20789); assay: Calcium mobilization assay for NTR1; type: cell-based
Sequence of NTR1 (P20789 whole entry): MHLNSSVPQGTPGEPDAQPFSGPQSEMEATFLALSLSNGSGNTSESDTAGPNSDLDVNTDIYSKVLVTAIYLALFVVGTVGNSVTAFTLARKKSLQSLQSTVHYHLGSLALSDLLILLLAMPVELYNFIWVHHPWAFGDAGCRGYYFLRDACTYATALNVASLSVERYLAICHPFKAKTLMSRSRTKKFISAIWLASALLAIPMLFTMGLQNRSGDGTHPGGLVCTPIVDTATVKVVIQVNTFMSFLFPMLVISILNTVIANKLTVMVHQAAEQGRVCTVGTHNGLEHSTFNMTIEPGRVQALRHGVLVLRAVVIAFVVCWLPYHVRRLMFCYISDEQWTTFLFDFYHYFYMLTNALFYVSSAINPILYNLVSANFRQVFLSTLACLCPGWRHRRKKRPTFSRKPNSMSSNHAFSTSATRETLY

NTR2 [1] = target: T2, NTR2 (Rattus norvegicus, UniProt Q63384); assay: Calcium mobilization assay for NTR2; type: cell-based
T2 sequence (Q63384 1-416): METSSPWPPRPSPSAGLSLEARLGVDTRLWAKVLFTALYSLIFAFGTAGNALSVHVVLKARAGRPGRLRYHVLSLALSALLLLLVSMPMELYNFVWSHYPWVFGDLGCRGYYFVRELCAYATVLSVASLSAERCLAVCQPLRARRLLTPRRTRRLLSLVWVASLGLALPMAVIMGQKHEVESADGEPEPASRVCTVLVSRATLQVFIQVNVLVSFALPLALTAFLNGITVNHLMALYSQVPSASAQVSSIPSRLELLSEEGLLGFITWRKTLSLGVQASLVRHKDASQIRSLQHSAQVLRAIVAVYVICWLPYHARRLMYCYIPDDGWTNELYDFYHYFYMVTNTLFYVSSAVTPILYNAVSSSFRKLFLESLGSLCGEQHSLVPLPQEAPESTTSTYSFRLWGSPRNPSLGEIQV

human apelin receptor = target: T3, human apelin receptor (Homo sapiens, UniProt P35414); assay: Radioligand displacement, [125I]-apelin-13, CHO-K1 cell membrane homogenates; type: binding
T3 sequence (P35414 1-380): T1 sequence (P35414 1-380)

NTR2 [2] = target: T2, NTR2; details: read-out: NTR2 EC50 (off-target); cited from earlier work
NTR2 receptor = details: read-out: NTR2 Ki (off-target); cited from earlier work

Row | SMILES | APJ agonist activity (human APJ; calcium mobilization) | further results
1 | CCCCC(=O)N(Cc1ccc(-c2ccccc2-c2nnn[nH]2)cc1)[C@H](C(=O)O)C(C)C [valsartan, reference compound] | none of these analogs possessed agonist activity | –
2 | COc1cccc(OC)c1-c1cc(C(=O)N[C@H](C(=O)NO)C2CCCCC2)nn1-c1ccc(F)cc1 [Compound 9, (S)-N-(1-Cyclohexyl-2-(hydroxyamino)-2-oxoethyl)-5-(2,6-dimethoxyphenyl)-1-(4-fluorophenyl)-1H-pyrazole-3-carboxamide] | not tolerated | –
3 | COc1cccc(OC)c1-c1cc(C(=O)NCC2CCCCC2)nn1-c1ccc(F)cc1 [Compound 5, N-(Cyclohexylmethyl)-5-(2,6-dimethoxyphenyl)-1-(4-fluorophenyl)-1H-pyrazole-3-carboxamide] | did not possess activity | –
4 | COc1cccc(OC)c1-c1cc(C(=O)N[C@@H](CC(=O)O)C2CCCCC2)nn1-c1ccc(F)cc1 [Compound 21, (S)-3-Cyclohexyl-3-(5-(2,6-dimethoxyphenyl)-1-(4-fluorophenyl)-1H-pyrazole-3-carboxamido)propanoic acid] | – | EC50 (human APJ): 9900 ± 2600 nM; NTR1 activity as agonist or antagonist (NTR1): Neither compound had any significant NTR1 activity; EC50 (NTR2 [1]): ~345 nM; NTR2 functional behaviour (NTR2 [1]): partial agonists at NTR2; Emax (NTR2 [1]; read-out: NTR2 Emax): 57%; Ki (human apelin receptor): 1400 ± 200 nM
5 | COc1cccc(OC)c1-c1cc(C(=O)N[C@@H](CCCCN)C(=O)O)nn1-c1ccc(F)cc1 [Compound 18, (S)-6-Amino-2-(5-(2,6-dimethoxyphenyl)-1-(4-fluorophenyl)-1H-pyrazole-3-carboxamido)hexanoic acid trifluoroacetate] | not tolerated | –
6 | COc1cccc(OC)c1-c1cc(C(=O)N[C@H](C(=O)NCC(=O)O)C2CCCCC2)nn1-c1ccc(F)cc1 [Compound 11, (S)-2-(2-Cyclohexyl-2-(5-(2,6-dimethoxyphenyl)-1-(4-fluorophenyl)-1H-pyrazole-3-carboxamido)acetamido)acetic acid] | inactive | –
7 | COc1cccc(OC)c1-c1cc(C(=O)N[C@@H](CCCCNC(=O)OC(C)(C)C)C(=O)O)nn1-c1ccc(F)cc1 [Compound 17, (S)-6-((Tert-butoxycarbonyl)amino)-2-(5-(2,6-dimethoxyphenyl)-1-(4-fluorophenyl)-1H-pyrazole-3-carboxamido)hexanoic acid] | not tolerated | –
8 | COc1cccc(OC)c1-c1cc(C(=O)N[C@@H](CC(C)C)C(=O)O)nn1-c1ccc(F)cc1 [Compound 19, (S)-2-(5-(2,6-Dimethoxyphenyl)-1-(4-fluorophenyl)-1H-pyrazole-3-carboxamido)-4-methylpentanoic acid] | did not retain APJ potency | –
9 | COC(=O)[C@@H](NC(=O)c1cc(-c2c(OC)cccc2OC)n(-c2ccc(F)cc2)n1)C1CCCCC1 [Compound 4, (S)-Methyl 2-cyclohexyl-2-(5-(2,6-dimethoxyphenyl)-1-(4-fluorophenyl)-1H-pyrazole-3-carboxamido)acetate] | did not possess activity | –
10 | COc1cccc(OC)c1-c1cc(C(=O)N[C@@H](C(=O)O)C2CCCCC2)nn1-c1ccc(F)cc1 [Compound 3, (R)-2-Cyclohexyl-2-(5-(2,6-dimethoxyphenyl)-1-(4-fluorophenyl)-1H-pyrazole-3-carboxamido)acetic acid] | significantly reduce activity | –
11 | COc1cccc(O)c1-c1cc(C(=O)N[C@H](C(=O)O)C2CCCCC2)nn1-c1ccc(F)cc1 [Compound 13, 2-Cyclohexyl-2-(1-(4-fluorophenyl)-5-(2-hydroxy-6-methoxyphenyl)-1H-pyrazole-3-carboxamido)acetic acid] | loss of potency | –
12 | CCCCc1nc(Cl)c(CO)n1Cc1ccc(-c2ccccc2-c2nn[nH]n2)cc1 [losartan, reference compound] | none of these analogs possessed agonist activity | –
13 | COc1cccc(OC)c1-c1cc(C(=O)N[C@H](C(=O)O)C2CCCCC2)nn1-c1ccc(F)cc1 [Compound 1] | – | EC50 (human APJ; read-out: functional EC50 at APJ, calcium mobilization): 21500 ± 5000 nM; EC50 (NTR2 [2]): 271 nM; Ki (NTR2 receptor): 622 nM; displacement of 125I radiolabeled pyr-apelin-13 (human apelin receptor): 100%; mode of binding at APJ (human apelin receptor; radioligand displacement studies): competitive orthosteric ligand of APJ
14 | COc1cccc(OC)c1-c1cc(C(=O)N[C@@H](CCC(N)=O)C(=O)O)nn1-c1ccc(F)cc1 [Compound 16, (S)-5-Amino-2-(5-(2,6-dimethoxyphenyl)-1-(4-fluorophenyl)-1H-pyrazole-3-carboxamido)-5-oxopentanoic acid] | not tolerated | –
15 | COc1cccc(OC)c1-c1cc(C(=O)N[C@H](C(=O)N(C)C)C2CCCCC2)nn1-c1ccc(F)cc1 [Compound 7, (S)-N-(1-Cyclohexyl-2-(dimethylamino)-2-oxoethyl)-5-(2,6-dimethoxyphenyl)-1-(4-fluorophenyl)-1H-pyrazole-3-carboxamide] | devoid of activity | –

Second part, led by results:

Row | APJ agonist activity (human APJ; calcium mobilization) | SMILES | further results
16 | inactive | Cc1cc(C(=O)N[C@H](C(=O)O)C2CCCCC2)nn1-c1ccc(F)cc1 [Compound 15, (S)-2-Cyclohexyl-2-(1-(4-fluorophenyl)-5-methyl-1H-pyrazole-3-carboxamido)acetic acid] | –
17 | inactive | COC(=O)CNC(=O)[C@@H](NC(=O)c1cc(-c2c(OC)cccc2OC)n(-c2ccc(F)cc2)n1)C1CCCCC1 [Compound 10, (S)-Methyl 2-(2-cyclohexyl-2-(5-(2,6-dimethoxyphenyl)-1-(4-fluorophenyl)-1H-pyrazole-3-carboxamido)acetamido)acetate] | –
18 | devoid of activity | COc1cccc(OC)c1-c1cc(C(=O)N[C@H](C(N)=O)C2CCCCC2)nn1-c1ccc(F)cc1 [Compound 6, (S)-N-(2-Amino-1-cyclohexyl-2-oxoethyl)-5-(2,6-dimethoxyphenyl)-1-(4-fluorophenyl)-1H-pyrazole-3-carboxamide] | –
19 | complete loss of agonist potency | O=C(N[C@H](C(=O)O)C1CCCCC1)c1cc(-c2c(O)cccc2O)n(-c2ccc(F)cc2)n1 [Compound 12, (S)-2-Cyclohexyl-2-(5-(2,6-dihydroxyphenyl)-1-(4-fluorophenyl)-1H-pyrazole-3-carboxamido)acetic acid] | –
20 | full agonist | COc1cccc(OC)c1-c1cc(C(=O)N[C@@H](CCC2CCCCC2)CC(=O)O)nn1-c1ccc(F)cc1 [Compound 22, (S)-5-Cyclohexyl-3-(5-(2,6-dimethoxyphenyl)-1-(4-fluorophenyl)-1H-pyrazole-3-carboxamido)pentanoic acid] | NTR1 activity as agonist or antagonist (NTR1): Neither compound had any significant NTR1 activity; NTR2 functional behaviour (NTR2 [1]): partial agonists at NTR2
21 | devoid of activity | COc1cccc(OC)c1-c1cc(C(=O)N[C@H](C(=O)NCc2ccccc2)C2CCCCC2)nn1-c1ccc(F)cc1 [Compound 8, (S)-N-(2-(Benzylamino)-1-cyclohexyl-2-oxoethyl)-5-(2,6-dimethoxyphenyl)-1-(4-fluorophenyl)-1H-pyrazole-3-carboxamide] | –
22 | significantly reduce activity | COc1cccc(OC)c1-c1cc(C(=O)N[C@H](C(=O)O)C2CCCCC2)n(-c2ccc(F)cc2)n1 [Compound 1a, (S)-2-Cyclohexyl-2-(3-(2,6-dimethoxyphenyl)-1-(4-fluorophenyl)-1H-pyrazole-5-carboxamido)acetic acid] | –
